One test concerns mosquitoes. Particulars: cited from earlier work.
Test [1] relates to female A. aegypti mosquitoes. Nature of the test: Repellency test, treated hand in cage of mosquitoes, time to first bite. It is filed as in vivo. Particulars: for Repellency: repellency time until first bite, solutions of 15 to 20% in ethanol applied to hand, cage with 20 female A. aegypti. As for the experimental part:
Repellency tests can be carried out in the laboratory, at a temperature of 20° C.±2° C. and a relative humidity of 50 to 60%. Temperature and relative humidity data should be monitored and recorded using a digital thermohygrometer during the experiments.
To perform the tests, there were used wooden cages with screens on the sides and glass on the upper face measuring 30 cm×30 cm×30 cm containing 20 female A. aegypti mosquitoes, all mated with no previous blood meal. The tests must be carried out during the daytime, respecting the preference for the mosquito's hematophagy activity.
For the tests, one of the hands of the analyzer must be sanitized with neutral soap and then the upper, lower, lateral face and the region between the fingers must be treated with repellent solutions in ethanol, in order for the compounds to have their repellency activities evaluated. […]
When the first bite occurs, the experiment is interrupted, and the time is recorded by a digital stopwatch.

For `CCN(CC)C(=O)c1cccc(C)c1` [DEET, N,N-diethyl-3-methylbenzamide], the “long-lasting effect (duration)” value in the test with mosquitoes (concentration of 20% to 30% of the compound) is reported as “more than 6 hours”. Consider `CCCCN(CCC(=O)OCC)C(C)=O` [IR 3535, ethyl butylacetylaminopropionate], for which the effectiveness entry with mosquitoes (used in a concentration above 10%) is listed as “slightly lower compared to DEET”. As for `CCC(C)OC(=O)N1CCCCC1CCO` (centres unmarked) [Icaridin], the “protection (duration)” value with mosquitoes (concentration of 20%) was “up to 10 hours”. Moreover, the “minimum concentration for repellent action” value with mosquitoes (in vivo) is 5%. In turn, `CCCC(=O)OC(C)C(=O)N1CCCC1` (centres unmarked) [Input 2] gave a Repellency in test [1] greater than 10 h. On the same count and under the same terms, with `CCCC(=O)O[C@@H](C)C(=O)N(CC)CC` [Input 3] the figure was 2 h; with `CCN(CC)C(=O)[C@H](C)OC(C)=O` [Input 4], 5 h; with `CCCC(=O)O[C@@H](C)C(=O)N1CCCCC1` [Input 5], greater than 10 h. Still for that read-out and setting: with `C[C@H](O)C(=O)N1CCCC1` [Input 7] the figure was 0 h. Compound `CCCC(=O)O[C@@H](C)C(=O)N1CCCC1` [Input 8] displayed a Repellency in test [1] greater than 12 h. The “result in terms of repellency time (comparison within Table 1)” value in test [1] (solutions of 15 to 20% in ethanol) was “best result in terms of repellency time”.

The record behind these values is patent US20230225321A1, “ARTHROPOD REPELLENTS OBTAINED BY CHEMICALLY CONVERTING LACTIC ACID, LACTATES OR OTHER LACTIC ACID DERIVATIVES” (UNIVERSIDADE FEDERAL DO PARANA, priority 2020, published 2023).
